Key:
[1] = tested on: augmentative airway mucus secretion; details: airway inflammation model by ozone exposure (lesion similar to chronic bronchitis); cited from earlier work
[2] = tested on: augmentative mucus secretion in guinea pig trachea; test: Suppressive effect on augmentative secretion by antigen challenge (ovalbumin-sensitized guinea pig, mucus score by PAS-Alcian Blue); type: in vivo; details: OA-sensitized guinea pig; test drug 100 mg/kg oral; 5% OA inhaled 30 minutes after drug; trachea removed 10 minutes later
Description: Suppressive Effect on Augmentative Secretion by Antigen Challenge
Egg albumin (Ovalbumin:OA) (70 mg/kg) is administered and sensitized to guinea pig into the peritoneal cavity on the first experiment day and 8th day. The test drug (100 mg/kg) was oral administered to the sensitized guinea pig on 22nd experiment day. 5%OA was inhaled for 2 minutes 30 minutes after the test drug was administered, and the trachea was removed 10 minutes later. It was dyed with PAS-Alcian Blue, and the augmentative mucus secretion was evaluated according to the level of the decrease in mucus score.
As a test drug, 2-[5-amino-6-oxo-2-phenyl-1,6-dihydro-1-pyrimidinyl]-N-[1-[[5-(t-butyl)-1,3,4-oxadiazole-2-yl]carbonyl]-2-methylpropyl]acetamide (Compound 34) was used.

Compound | augmentative airway mucus secretion [1] | mucus score (augmentative mucus secretion, PAS-Alcian Blue dye) [2]
CC(C)(C)C(=O)Oc1ccc(S(=O)(=O)Nc2ccccc2C(=O)NCC(=O)O)cc1 [ONO-5046] | suppress | –
CC(C)C(NC(=O)Cn1c(-c2ccccc2)ncc(N)c1=O)C(=O)c1nnc(C(C)(C)C)o1 (centres unmarked) [Compound 34, 2-[5-amino-6-oxo-2-phenyl-1,6-dihydro-1-pyrimidinyl]-N-[1-[[5-(t-butyl)-1,3,4-oxadiazole-2-yl]carbonyl]-2-methylpropyl]acetamide] | – | intentionally suppressed
